In PMC13114161 (Antibiotics, 2026):
Where two headings read alike, the source gives them in different places.

Legend:
Format in all cases: cell-based, Pseudomonas aeruginosa
P. aeruginosa ATCC 27853 = experiment: MIC and levofloxacin potentiation (broth microdilution)
Protocol: Once synthesized, the three fluorinated EPI analogs (TXA11114, TXA11164 and TXA12027) were first assayed for their antibacterial activities against P. aeruginosa ATCC 27853. They had MICs of 100, >200 and 100 µg/mL, respectively (Table 1). […] Particularly, the inactivity of TXA11164 was surprising as the pKa values of both the amines are similar to that in TXA11114.
(§1) MIC assays for potentiation of antimicrobial activity against P. aeruginosa were performed as described previously.

[1] = system: P. aeruginosa ATCC 27853 ompH mutants EPIR32, EPIR36, EPIR38; experiment: microbe, parasite or virus in culture; details: Pseudomonas aeruginosa
Protocol: as §1

P. aeruginosa = experiment: MIC potentiation of antimicrobial agents by EPIs; details: for MIC of antibiotic + TXA01182 / Fold difference of antibiotic MIC + TXA01182: TXA01182 at […]; for MIC of antibiotic + TXA11114 / Fold difference of antibiotic MIC + TXA11114: TXA11114 at […]; for Fold difference of antibiotic MIC + TXA09155 / MIC of antibiotic + TXA09155: TXA09155 at […];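 as to Fold difference of antibiotic MIC + TXA01182: TXA01182 tested at 6.25 µg/mL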;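 as to Fold difference of antibiotic MIC + TXA09155: TXA09155 tested at 6.25 µg/mL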; as to Fold difference of antibiotic MIC + TXA11114: TXA11114 at 6.25 µg/mL;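 as to MIC of antibiotic + TXA01182: TXA01182 tested at 6.25 µg/mL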;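 as to MIC of antibiotic + TXA09155: TXA09155 tested at 6.25 µg/mL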; as to MIC of antibiotic + TXA11114: TXA11114 at 6.25 µg/mL
Protocol: In contrast, the activities of gentamicin and imipenem were unchanged in the presence of TXA11114 under the conditions tested. Although gentamicin can be transported by the MexXY efflux system, the absence of potentiation in this assay is not sufficient to draw conclusions regarding MexXY inhibition or overall efflux specificity.
as §1

[2] = system: multidrug-resistant P. aeruginosa clinical isolates from the CDC-FDA; experiment: Levofloxacin MIC potentiation, CDC-FDA isolates; details: for Levofloxacin MIC fold difference, +EPI / Levofloxacin MIC, +EPI: EPI […] (TXA11114, TXA09155) or 50 μg/mL (MC-04,124, PAβN)
Protocol: In a comparative study, the levofloxacin-potentiating activity of TXA11114 was evaluated alongside the well-characterized EPIs PAβN and MC-04,124 using P. aeruginosa clinical isolates obtained from the CDC and FDA Antimicrobial Resistance Isolate Bank and the Walter Reed Army Institute of Research (WRAIR). […] While PAβN has been widely studied in laboratory strains, its activity against the CDC/FDA P. aeruginosa panel has been reported only sparingly, limiting direct cross-study comparisons.
as §1

[3] = Pseudomonas aeruginosa, ATCC27853, ATCC 27853 parent strain (Table S1), read-out: MIC

Compound: NCC(F)(F)C[C@@H](N)CNC(=O)c1cc2ccc(-c3ccc(F)cc3)cc2[nH]1 [TXA12027, (R)-N-(2,5-diamino-4,4-difluoropentyl)-6-(4-fluorophenyl)-1H-indole-2-carboxamide]
- MIC (P. aeruginosa ATCC 27853; Pseudomonas aeruginosa, ATCC27853, EPI alone, ATCC 27853, read-out: EPI MIC): 100 µg/mL
- LVX MIC (+EPI) (P. aeruginosa ATCC 27853; levofloxacin MIC with EPI at […], ATCC 27853): 1 µg/mL

Compound: CC(C)(O/N=C(\C(=O)N[C@@H]1C(=O)N2C(C(=O)[O-])=C(C[n+]3ccccc3)CS[C@H]12)c1csc(N)n1)C(=O)O [Ceftazidime, ceftazidime]
- MIC ([1]; ATCC27853, EPIR32): 0.25 µg/mL
- MIC ([1]; ATCC27853, EPIR38): 2 µg/mL
- MIC of antibiotic + TXA01182 (P. aeruginosa): 1 µg/mL
- MIC of antibiotic + TXA11114 (P. aeruginosa): 0.5 µg/mL
- MIC (P. aeruginosa ATCC 27853; ATCC 27853 parent strain (Table S1)): 2 µg/mL

Compound: CNC(C)C1CCC(N)C(OC2C(N)CC(N)C(OC3OCC(C)(O)C(NC)C3O)C2O)O1 (stereo not drawn) [Gentamicin]
- Fold difference of antibiotic MIC + TXA01182 (P. aeruginosa): 1 fold
- MIC of antibiotic + TXA01182 (P. aeruginosa): 2 µg/mL
- Fold difference of antibiotic MIC + TXA09155 (P. aeruginosa): 1 fold
- MIC of antibiotic + TXA09155 (P. aeruginosa): 2 µg/mL
- Fold difference of antibiotic MIC + TXA11114 (P. aeruginosa): 1 fold
- MIC of antibiotic + TXA11114 (P. aeruginosa): 2 µg/mL
- Fold difference of antibiotic MIC + TXA11114 (P. aeruginosa; listed as gentamicin): unchanged

Compound: C[C@H]1[C@H](NC(=O)/C(=N\OC(C)(C)C(=O)O)c2csc(N)n2)C(=O)N1S(=O)(=O)O [Aztreonam]
- Fold difference of antibiotic MIC + TXA01182 (P. aeruginosa): 4 fold
- MIC of antibiotic + TXA01182 (P. aeruginosa): 2 µg/mL
- Fold difference of antibiotic MIC + TXA09155 (P. aeruginosa): 4 fold
- MIC of antibiotic + TXA09155 (P. aeruginosa): 2 µg/mL
- Fold difference of antibiotic MIC + TXA11114 (P. aeruginosa): 2 fold

Compound: NCC1CNC(C(=O)NC(CCc2ccccc2)C(=O)Nc2ccc3ncccc3c2)C1 (stereo not drawn) [MC-04,124]
- Levofloxacin MIC fold difference, +EPI ([2]; AR-0229): 1 fold
- Levofloxacin MIC, +EPI ([2]; AR-0229): 64 µg/mL
- Levofloxacin MIC fold difference, +EPI ([2]; AR-0232): 1 fold
- Levofloxacin MIC, +EPI ([2]; AR-0232): 8 µg/mL
- Levofloxacin MIC fold difference, +EPI ([2]; AR-0233): 1 fold
- Levofloxacin MIC, +EPI ([2]; AR-0233): 4 µg/mL
- Levofloxacin MIC fold difference, +EPI ([2]; AR-0234): 1 fold
- Levofloxacin MIC, +EPI ([2]; AR-0234): 8 µg/mL
- Levofloxacin MIC fold difference, +EPI ([2]; AR-0239): 1 fold
- Levofloxacin MIC, +EPI ([2]; AR-0239): 64 µg/mL
- Levofloxacin MIC fold difference, +EPI ([2]; AR-0242): 2 fold
- Levofloxacin MIC, +EPI ([2]; AR-0242): 4 µg/mL
- Levofloxacin MIC fold difference, +EPI ([2]; AR-0244): 1 fold
- Levofloxacin MIC fold difference, +EPI ([2]; AR-0246): 1 fold
- Levofloxacin MIC, +EPI ([2]; AR-0246): 64 µg/mL
- Levofloxacin MIC fold difference, +EPI ([2]; AR-0248): 1 fold
- Levofloxacin MIC, +EPI ([2]; AR-0248): 16 µg/mL
- Levofloxacin MIC fold difference, +EPI ([2]; AR-0249): 1 fold
- Levofloxacin MIC, +EPI ([2]; AR-0249): 64 µg/mL
- Levofloxacin MIC fold difference, +EPI ([2]; AR-0252): 1 fold
- Levofloxacin MIC, +EPI ([2]; AR-0252): 32 µg/mL
- Levofloxacin MIC fold difference, +EPI ([2]; AR-0253): 1 fold
- Levofloxacin MIC, +EPI ([2]; AR-0253): 2 µg/mL
- Levofloxacin MIC fold difference, +EPI ([2]; AR-0264): 1 fold
- Levofloxacin MIC, +EPI ([2]; AR-0264): 64 µg/mL
- Share of CDC isolates with levofloxacin MIC reduced ≥8-fold (potentiated) ([2]; TXA11114 […], PAβN and MC-04,124 50 µg/mL): minimal MIC shifts

Compound: C[C@@H](O)[C@H]1C(=O)N2C(C(=O)O)=C(S[C@@H]3CN[C@H](C(=O)N(C)C)C3)[C@H](C)[C@H]12 [MEM, meropenem]
- MIC ([1]; ATCC27853, EPIR32): 0.125 µg/mL
- MIC ([1]; ATCC27853, EPIR36): 0.125 µg/mL
- MIC ([1]; ATCC27853, EPIR38): 0.5 µg/mL
- MIC (P. aeruginosa ATCC 27853; [3]): 1 µg/mL

Compound: C[C@H]1c2cccc(O)c2C(=O)C2=C(O)[C@]3(O)C(=O)C(C(N)=O)=C(O)[C@@H](N(C)C)[C@@H]3[C@@H](O)[C@@H]21 [Doxycycline, doxycycline]
- MIC of antibiotic + TXA01182 (P. aeruginosa): 2 µg/mL
- MIC of antibiotic + TXA09155 (P. aeruginosa): 1 µg/mL
- MIC of antibiotic + TXA11114 (P. aeruginosa): 4 µg/mL
- MIC (P. aeruginosa ATCC 27853; [3]): 32 µg/mL

Compound: Cotrimoxazole
- MIC of antibiotic, No EPI (P. aeruginosa): 256 µg/mL
- Fold difference of antibiotic MIC + TXA01182 (P. aeruginosa): 16, (>16) fold
- MIC of antibiotic + TXA01182 (P. aeruginosa): 16, (>16) μg/mL
- Fold difference of antibiotic MIC + TXA09155 (P. aeruginosa): 32 fold
- MIC of antibiotic + TXA09155 (P. aeruginosa): 8 µg/mL
- Fold difference of antibiotic MIC + TXA11114 (P. aeruginosa): 8 fold
- MIC of antibiotic + TXA11114 (P. aeruginosa): 32 µg/mL
